Here are results for one compound from article PMC6683035, “Extra Virgin Olive Oil Contains a Phenolic Inhibitor of the Histone Demethylase LSD1/KDM1A” (Nutrients, 2019).

The target of this experiment is T1, LSD1 (lysine-specific histone demethylase 1A, KDM1A) (Homo sapiens, UniProt O60341).
T1 construct: recombinant human LSD1 (BPS#50103)
The experiment can be described thus: AlphaScreen demethylase assay with biotinylated histone H3 peptide substrate and purified recombinant LSD1. The format is biochemical.

On to `C/C=C(/C=O)[C@@H](CC=O)CC(=O)OCCc1ccc(O)c(O)c1` [oleacein], for which the IC50 is around 2500 nM.
